Reference: patent US20130029973A1, “TETRAHYDROBENZOTHIOPHENE COMPOUND” (ASTELLAS PHARMA INC., priority 2010, published 2013)

Key:
[1] = system: orally 32P phosphate loaded rats; assay: Blood radioactivity increase inhibiting action in orally 32P phosphate loaded rats (phosphate absorption inhibitory action); format: in vivo; settings: Rattus norvegicus, 0.5 h; 3 mg/kg oral, male Wistar rats; from serum radioactivity AUC0-30min vs control group; read-out: Phosphate absorption inhibitory rate (%)
Method: Blood Radioactivity Increase Inhibiting Action in Orally ^32P Phosphate Loaded Rats (Phosphate Absorption Inhibitory Action)
Male Wistar rats (6 to 7 weeks old) were fasted for 24 hours and used as experimental animals. The compound was dissolved or suspended with a solvent, and was used at a concentration of 0.6 mg/mL. The compound-administered animals were forcibly orally administered with the compound at a dose of 3 mg/kg. Control-group animals were administered a solvent containing no compound at a dose of 5 mL/kg. After 5 minutes from administration of the compound or from administration of the solvent, a ^32P-containing phosphate solution (8.3 mM NaH2PO4) was orally administered thereto at a dose of 7.2 mL/kg. After 15 minutes and 30 minutes, the blood was taken from the orbital venous plexus and the serum was collected. Radioactivity in 0.1 mL of the serum was measured by a liquid scintillation counter. AUC0-30min calculated from the measured counts was considered as a phosphate absorption amount. The phosphate absorption inhibitory rate was determined from the AUC0-30min value according to the following equation.
Phosphate absorption inhibitory rate (%)=(1−Phosphate absorption count of compound-administered group/Phosphate absorption count of control group)×100
As a result, it was confirmed that several compounds of the formula (I) have an intestinal phosphate absorption inhibitory action. With the several compounds of the formula (I), the phosphate absorption inhibitory rates at a pharmacological evaluation dose of 3 mg/kg are shown in Table 2.

rat NPT-IIb = biological target: T1, rat NPT-IIb (Rattus norvegicus, UniProt Q9JJ09); assay: 33P phosphate uptake inhibiting action of rat NPT-IIb expressing cell; format: cell-based; settings: HEK293; evaluation concentration 1 μM; 33P uptake in rat NPT-IIb stably expressing 293 cells; read-out: Rat NPT-IIb inhibitory rate (%)
T1 construct: rat NPT-IIb ORF was cloned into p3×FLAG-CMV-10; 3xFLAG (N); expressed in transfected cells
T1 sequence (Q9JJ09 1-695): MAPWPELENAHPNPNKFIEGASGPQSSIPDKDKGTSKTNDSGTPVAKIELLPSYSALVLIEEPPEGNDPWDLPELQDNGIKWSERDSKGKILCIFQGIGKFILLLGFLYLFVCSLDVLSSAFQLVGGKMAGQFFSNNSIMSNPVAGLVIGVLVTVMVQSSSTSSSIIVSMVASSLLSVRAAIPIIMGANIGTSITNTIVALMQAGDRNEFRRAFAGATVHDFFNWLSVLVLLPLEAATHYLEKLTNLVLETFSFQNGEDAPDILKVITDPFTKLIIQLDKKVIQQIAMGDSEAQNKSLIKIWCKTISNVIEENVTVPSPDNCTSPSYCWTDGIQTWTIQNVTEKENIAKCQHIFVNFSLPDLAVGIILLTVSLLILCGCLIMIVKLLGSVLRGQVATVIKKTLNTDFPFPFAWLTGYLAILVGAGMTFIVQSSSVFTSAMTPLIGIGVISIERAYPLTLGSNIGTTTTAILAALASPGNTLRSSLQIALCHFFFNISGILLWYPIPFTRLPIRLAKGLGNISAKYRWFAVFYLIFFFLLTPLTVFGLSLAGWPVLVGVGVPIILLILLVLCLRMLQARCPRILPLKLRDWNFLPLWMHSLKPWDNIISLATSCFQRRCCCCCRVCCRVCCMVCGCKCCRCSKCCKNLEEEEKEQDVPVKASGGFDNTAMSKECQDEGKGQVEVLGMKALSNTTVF
Text: Test Example 1: ^33P Phosphate Uptake Inhibiting Action of Rat NPT-IIb Expressing Cell
Preparation of Rat NPT-IIb Expressing Cell
Using rat small intestine cDNA library as a template, rat NPT-IIb ORF was cloned into p3×FLAG-CMV-10 by PCR according to a standard method. Then, the cloned rat NPT-IIb expressing plasmid was transfected into 293 cells, and G418 was used to obtain a rat NPT-11b-stably expressing cell line.
Evaluation System on Inhibition of Phosphate Uptake into Rat NPT-IIb Expressing Cell
The rat NPT-Hb expressing cells were seeded into a 96-well plate and incubated overnight. The medium was taken out and washed with buffer A (137 mM N-methyl-D-glucamine, 5.4 mM KCl, 2.8 mM CaCl2, 1.2 mM MgCl2, 10 mM HEPES (adjusted to pH 7.4 with HCl)), and then buffer B (137 mM NaCl, 5.4 mM KCl, 2.8 mM CaCl2, 1.2 mM MgCl2, 0.1 mM KH2PO4, 10 mM HEPES (adjusted to pH 7.4 with KOH)) was added thereto. Then, a compound having 10-fold higher concentration relative to the evaluation concentration was prepared by dilution with the buffer B and added thereto, followed by incubation in CO2 incubator. Buffer B supplemented 50 μCi/mL ^33P was added thereto, followed by further incubation in a CO2 incubator. After the reaction, the buffer was taken out and the cells were washed with buffer C (137 mM NaCl, 10 mM Tris/HCl pH 7.2). Then, Microscint-20 was added thereto and ^33P uptake was measured by using TopCount. The inhibitory rate was determined according to the following equation.
Inhibitory rate (%)=(1−(^33P uptake of drug-treated well)/(^33P uptake of DMSO-added well))×100
For several compounds of the formula (I), rat NPT-11b inhibitory activity at a pharmacological evaluation concentration of 1 μM is shown in Table 1. Here, Ex represents Example No. as denoted below (this shall apply hereinafter).

Row | melting point | inhibition at 1 µM (rat NPT-IIb) | SMILES | inhibition in vivo at 3 mg/kg [1]
1 | 178.5 °C | 86% | CCN([C@H]1CC[C@H](C(=O)O)CC1)S(=O)(=O)c1cccc(C(=O)Nc2sc3c(c2C(=O)Nc2ccc(CCCc4ccc(C(=O)O)cc4)cc2)CCCC3)c1 [Example 23, 4-{3-[4-({[2-({3-[(trans-4-carboxycyclohexyl)(ethyl)sulfamoyl]benzoyl}amino)-4,5,6,7-tetrahydro-1-benzothiophen-3-yl]carbonyl}amino)phenyl]propyl}benzoic acid] | ≥ 60%
2 | 220.1 °C | 80% | O=C(O)CCCCN(C1CC1)S(=O)(=O)c1cccc(C(=O)Nc2sc3c(c2C(=O)Nc2ccc(CCc4ccc(C(=O)O)cc4)cc2)CCCC3)c1 [Example 34, 4-{2-[4-({[2-({3-[(4-carboxybutyl)(cyclopropyl)sulfamoyl]benzoyl}amino)-4,5,6,7-tetrahydro-1-benzothiophen-3-yl]carbonyl}amino)phenyl]ethyl}benzoic acid] | ≥ 60%
